Experimental data reported in patent publication US20100197650A1, “COMPOSITIONS AND METHODS OF TREATMENT COMPRISING CEFTAROLINE” (FOREST LABORATORIES HOLDINGS LTD., priority 2008, published 2010).
In brackets after ≈: the same amount, converted by molar mass. Like-named read-outs stand apart in the source and are kept apart here.

Legend:
Staphylococcus aureus = assay: MIC, broth microdilution (Example 1); format: cell-based; settings: Staphylococcus aureus, ATCC29213, S. aureus 0100 (ATCC 29213), FIC control; read-out: MIC
Description: (§1) Stock solutions of all antibacterial agents were prepared at 80-fold (80×) the final target concentration in the appropriate solvent and the solution was allowed to stand for 60 minutes. All antibacterial agents were in solution under these conditions. The final drug concentrations in the FIC assay plates were set to bracket the MIC value of each agent for each test organism, unless the strain was totally resistant to the test agent.
(§2) The test organisms were originally received from clinical sources, or from the American Type Culture Collection. Upon receipt, the isolates were streaked onto the appropriate growth medium: Chocolate Agar for H. influenzae, Tryptic Soy Agar II (Becton Dickinson, Sparks, Md.) supplemented with 5% defibrinated sheep blood for streptococci, and unsupplemented Tryptic Soy Agar II for all other organisms. Colonies were harvested from these plates and a cell suspension was prepared in Tryptic Soy Broth (Becton Dickinson) containing cryoprotectant. Aliquots were then frozen at −80° C. On the day prior to assay, the frozen seeds of the organisms to be tested in that session were thawed and streaked for isolation onto the appropriate agar medium plates and incubated overnight at 35° C.
(§3) The test medium for H. influenzae was Haemophilus Test Medium. Streptococci were tested in Mueller Hinton II Broth (Becton Dickinson; Lot 6235472) supplemented with 2% lysed horse blood (Cleveland Scientific, Bath, Ohio; Lot H88621). All other organisms were tested in Mueller Hinton II Broth (Becton Dickinson, Lot 6235472). The broth was prepared at 1.05× normal weight/volume to offset the 5% volume of the drugs in the final test plates.
(§4) In order to select the proper test concentrations for each drug combination, minimal inhibitory concentration (MIC) values were first determined using the broth microdilution method previously described (Clinical and Laboratory Standards Institute. Methods for Dilution Antimicrobial Susceptibility Tests for Bacteria That Grow Aerobically; Approved Standard—Seventh Edition. Clinical and Laboratory Standards Institute document M7-A7 [ISBN 1-56238-587-9]. Clinical and Laboratory Standards Institute, 940 West Valley Road, Suite 1400, Wayne, Pa. 19087-1898 USA, 2006).
(§5) The wells of standard 96-well microdilution plates (Falcon 3918) were filled with 150 μL of 100% DMSO using the Multidrop 384. These plates were used to prepare the drug “mother plates” which provided the serial drug dilutions for the drug combination plates. The Biomek 2000 was used to transfer 150 μl of each stock solution (80×) from the wells in Column 1 of a deep well plate to the corresponding wells in Column 1 of the mother plate and to make seven 2-fold serial dilutions. Two mother plates, one for each drug, were combined to form a “checkerboard” pattern by transfer of equal volumes (using a multi-channel pipette) to the drug combination plate. Row H and Column 8 each contained serial dilutions of one of the agents alone for determination of the MIC.
(§6) Plates were stacked 3 high, covered with a lid on the top plate, placed in plastic bags, and incubated at 35° C. for approximately 20 hours. Following incubation, the microplates were removed from the incubator and viewed from the bottom using a ScienceWare plate viewer. Prepared reading sheets were marked for the MIC of drug 1 (row H), the MIC of drug 2 (column 8) and the wells of the growth-no growth interface.

Haemophilus influenzae = assay: MIC, broth microdilution (Example 1); format: cell-based; settings: Haemophilus influenzae, read-out: MIC
Description: as §1, §2, §3, §4, §5, §6

Streptococcus pneumoniae = assay: MIC, broth microdilution (Example 1); format: cell-based
Description: as §1, §2, §3, §4, §5, §6

ESBL-producing E. coli = assay: Susceptibility testing MIC/MBC, broth microdilution (Example 2); format: cell-based, Escherichia coli; settings: for MBC / MIC: Escherichia coli; for MBC: read-out: MBC; for MIC: read-out: MIC
[1] = tested on: ESBL-producing Klebsiella pneumoniae; assay: as above; format: cell-based; settings: Klebsiella pneumoniae; for MBC: read-out: MBC
Escherichia coli = assay: MIC, broth microdilution (Example 1); format: cell-based; settings: Escherichia coli, read-out: MIC
Description: as §1, §2, §3, §4, §5, §6

Klebsiella pneumoniae = assay: MIC, broth microdilution (Example 1); format: cell-based; settings: Klebsiella pneumoniae, read-out: MIC
Description: as §1, §2, §3, §4, §5, §6

Enterococcus faecalis = assay: MIC, broth microdilution (Example 1); format: cell-based; settings: Enterococcus faecalis, ATCC29212, E. faecalis 0101 (ATCC 29212), FIC control; read-out: MIC
Description: as §1, §2, §3, §4, §5, §6

Compound `CC1(C)S[C@@H]2[C@H](NC(=O)[C@H](N)c3ccc(O)cc3)C(=O)N2[C@H]1C(=O)O` [Amoxicillin] has an MIC (Staphylococcus aureus) of 4 µg/mL.

Work on `CC[C@H]1OC(=O)[C@H](C)[C@@H](O[C@H]2C[C@@](C)(OC)[C@@H](O)[C@H](C)O2)[C@H](C)[C@@H](O[C@@H]2O[C@H](C)C[C@H](N(C)C)[C@H]2O)[C@](C)(O)C[C@@H](C)CN(C)[C@H](C)[C@@H](O)[C@]1(C)O` [Azithromycin] yielded an MIC (Haemophilus influenzae; H. influenzae 1224) of 1 µg/mL, an MIC (Haemophilus influenzae; H. influenzae 2797 (BLNAR)) of 1 µg/mL and an MIC (Haemophilus influenzae; H. influenzae 2798 (BLNAR)) of 2 µg/mL. The MIC (Haemophilus influenzae; H. influenzae 2799 (BLNAR)) was 0.25 µg/mL, the MIC (Streptococcus pneumoniae; S. pneumoniae 0877 (PRSP)) was >32^a^ μg/mL and the MIC (Streptococcus pneumoniae; Streptococcus pneumoniae, PRSP, S. pneumoniae 0876 (PRSP), read-out: MIC) was 2 µg/mL. It also gave an MIC (Streptococcus pneumoniae; Streptococcus pneumoniae, PRSP, S. pneumoniae 0877 (PRSP), read-out: MIC) greater than 32 µg/mL, an MIC (Streptococcus pneumoniae; Streptococcus pneumoniae, S. pneumoniae 0866 (PSSP), read-out: MIC) of 0.06 µg/mL and an MIC (Streptococcus pneumoniae; Streptococcus pneumoniae, S. pneumoniae 0869 (PSSP), read-out: MIC) of 0.06 µg/mL.

For `C[C@H]1[C@H](NC(=O)/C(=N\OC(C)(C)C(=O)O)c2csc(N)n2)C(=O)N1S(=O)(=O)O` [Aztreonam], the MBC (ESBL-producing E. coli; E. coli isolate no. 5401) was 0.25 µg/mL (≈ 0.574 µM), the MIC (ESBL-producing E. coli; E. coli isolate no. 5401) was 0.25 µg/mL (≈ 0.574 µM) and the MBC (ESBL-producing E. coli; E. coli isolate no. 5411) was 32 µg/mL (≈ 73.5 µM). It also gave an MIC (ESBL-producing E. coli; E. coli isolate no. 5411) of 8 µg/mL (≈ 18.4 µM), an MIC ([1]; 1 K. pneumoniae isolate, read-out: MIC) of 0.5 µg/mL (≈ 1.15 µM) and an MBC ([1]; K. pneumonia isolate no. 5427) of 1 µg/mL (≈ 2.3 µM). It also gave an MIC ([1]; K. pneumonia isolate no. 5427, read-out: MIC) of 0.5 µg/mL (≈ 1.15 µM), an MBC ([1]; K. pneumonia isolate no. 5436) of 64 µg/mL (≈ 147 µM) and an MIC ([1]; K. pneumonia isolate no. 5436, read-out: MIC) of 64 µg/mL (≈ 147 µM). The MIC ([1]; all K. pneumoniae except 1 isolate, read-out: MIC values) was no less than 8 µg/mL, the MIC (Escherichia coli; E. coli 1587) was 0.25 µg/mL and the MIC (Escherichia coli; E. coli 2273 (ESBL)) was 16 µg/mL. The MIC (Klebsiella pneumoniae; K. pneumoniae 1340) was 0.12 µg/mL and the MIC (Klebsiella pneumoniae; K. pneumoniae 1461) was 0.25 µg/mL.

In the case of `CO/N=C(\C(=O)N[C@@H]1C(=O)N2C(C(=O)[O-])=C(C[N+]3(C)CCCC3)CS[C@H]12)c1csc(N)n1` [Cefepime], the MBC range (ESBL-producing E. coli; E. coli (10) clinical isolates) is reported as 0.25 to 512 µg/mL, the MIC range (ESBL-producing E. coli; E. coli (10) clinical isolates) is reported as 0.125 to 256 µg/mL and the MBC (ESBL-producing E. coli; E. coli isolate no. 5401) is reported as 4 µg/mL (≈ 8.32 µM). For the same compound, the MIC (ESBL-producing E. coli; E. coli isolate no. 5401) was 4 µg/mL (≈ 8.32 µM), the MBC (ESBL-producing E. coli; E. coli isolate no. 5411) was 4 µg/mL (≈ 8.32 µM) and the MIC (ESBL-producing E. coli; E. coli isolate no. 5411) was 2 µg/mL (≈ 4.16 µM).

Compound `O=C(N[C@H](CO)[C@H](O)c1ccc([N+](=O)[O-])cc1)C(Cl)Cl` [Chloramphenicol] has an MIC (Enterococcus faecalis) of 8 µg/mL and an MIC (Staphylococcus aureus) of 16 µg/mL.
